# Assay results from US10092551B2, “Spiro-thiazolones” (Hoffmann-La Roche Inc., priority 2014, dated 2018).
# Where a name gives a salt, the structure may show the parent alone.
# Target: human V1a receptor (Homo sapiens (Human), UniProt P37288)
# Assay: human V1a receptor binding studies (3H-Vasopressin, SPA beads)
# Conditions: membranes of HEK293 cells transiently transfected with human V1a receptor, Ki by Cheng-Prussoff
# Outline: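 Membranes from HEK293 cells transiently expressing cloned human V1a receptor, bound on yttrium silicate SPA beads with 4 nM 3H-vasopressin (added stock) and serially diluted compound, 1 h at room temperature. Non-specific binding defined with cold vasopressin; IC50 by non-linear regression, Ki via Cheng-Prusoff.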
# Chain of human V1a receptor (P37288 whole entry): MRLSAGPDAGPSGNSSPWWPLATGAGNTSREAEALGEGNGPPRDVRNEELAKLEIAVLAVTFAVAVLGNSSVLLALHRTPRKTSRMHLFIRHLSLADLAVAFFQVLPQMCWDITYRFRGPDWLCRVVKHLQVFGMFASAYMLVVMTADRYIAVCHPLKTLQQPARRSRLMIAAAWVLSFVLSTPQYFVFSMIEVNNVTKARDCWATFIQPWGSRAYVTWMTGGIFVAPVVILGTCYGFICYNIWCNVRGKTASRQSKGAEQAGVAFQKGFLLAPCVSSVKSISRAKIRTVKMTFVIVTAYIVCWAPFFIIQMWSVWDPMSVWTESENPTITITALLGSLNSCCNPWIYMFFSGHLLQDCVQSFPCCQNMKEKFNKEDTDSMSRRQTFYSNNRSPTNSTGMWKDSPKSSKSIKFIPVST
row,Structure (SMILES),pKi hV1a
1,"O=C1N=C(N2CCC3(CC2)OCc2ccccc23)S/C1=C1/CCCCc2ccc(Cl)cc21 [Example 89, (5E/Z)-5-(3-chloro-6,7,8,9-tetrahydro-5H-benzo[7]annulen-5-ylidene)-2-(1′H,3H-spiro[2-benzofuran-1,4′-piperidin]-1′-yl)-1,3-thiazol-4(5H)-one]",9.0
2,"C/C(=C1/SC(N2CCC3(CC2)OCc2ncccc23)=NC1=O)c1ccc(Cl)nc1 [Example 162, (5E/Z)-5-[1-(6-chloropyridin-3-yl)ethylidene]-2-(1′H,7H-spiro[furo[3,4-b]pyridine-5,4′-piperidin]-1′-yl)-1,3-thiazol-4(5H)-one]",7.9
3,"C/C(=C1/SC(N2CCC3(CC2)OCc2ccccc23)=NC1=O)C1CC1 [Example 42, (5E/Z)-5-(1-cyclopropylethylidene)-2-(1′H,3H-spiro[2-benzofuran-1,4′-piperidin]-1′-yl)-1,3-thiazol-4(5H)-one]",8.4
4,"O=C1N=C(N2CCC3(CC2)OCc2ccccc23)SC1=C(C1CCCCC1)C1CCCCC1 [Example 125, 5-(dicyclohexylmethylidene)-2-(1′H,3H-spiro[2-benzofuran-1,4′-piperidin]-1′-yl)-1,3-thiazol-4(5H)-one]",7.2
5,"O=C1N=C(N2CCC3(CC2)OCc2ccccc23)SC1=C1c2ccccc2-c2ccccc21 [Example 104, 5-(9H-fluoren-9-ylidene)-2-(1′H,3H-spiro[2-benzofuran-1,4′-piperidin]-1′-yl)-1,3-thiazol-4(5H)-one]",8.2
6,"O=C1N=C(N2CCC3(CC2)OCc2ccccc23)SC1=C1c2ccccc2Sc2ccccc21 [Example 102, 2-(1′H,3H-spiro[2-benzofuran-1,4′-piperidin]-1′-yl)-5-(9H-thioxanthen-9-ylidene)-1,3-thiazol-4(5H)-one]",8.6
7,"CC(C)=C1SC(N2CCC3(CC2)OCc2ccccc23)=NC1=O [Example 30, 5-(propan-2-ylidene)-2-(1′H,3H-spiro[2-benzofuran-1,4′-piperidin]-1′-yl)-1,3-thiazol-4(5H)-one]",7.8
8,"O=C1N=C(N2CCC3(CC2)OCc2ncccc23)S/C1=C1/COCc2ccccc21 [Example 168, (5E/Z)-5-(1H-isochromen-4(3H)-ylidene)-2-(1′H,7H-spiro[furo[3,4-b]pyridine-5,4′-piperidin]-1′-yl)-1,3-thiazol-4(5H)-one]",8.2
9,"C/C(=C1/SC(N2CCC3(CC2)OCc2cccnc23)=NC1=O)c1ccc(Cl)cc1 [Example 2, (5E/Z)-5-[1-(4-chlorophenyl)ethylidene]-2-(1′H,5H-spiro[furo[3,4-b]pyridine-7,4′-piperidin]-1′-yl)-1,3-thiazol-4(5H)-one]",9.0
10,"O=C1N=C(N2CCC3(CC2)OCc2ccccc23)S/C1=C(/CF)c1ccc(Cl)cc1 [Example 23, (5E/Z)-5-[1-(4-chlorophenyl)-2-fluoroethylidene]-2-(1′H,3H-spiro[2-benzofuran-1,4′-piperidin]-1′-yl)-1,3-thiazol-4(5H)-one]",9.4
11,"C/C(=C1/SC(N2CCC3(CC2)OCc2ccccc23)=NC1=O)c1cnn(C)c1 [Example 62, (5Z)-5-[1-(1-methyl-1H-pyrazol-4-yl)ethylidene]-2-(1′H,3H-spiro[2-benzofuran-1,4′-piperidin]-1′-yl)-1,3-thiazol-4(5H)-one]",8.3
12,"CC(C)(C)[Si](C)(C)OC/C(=C1\SC(N2CCC3(CC2)OCc2ccccc23)=NC1=O)c1ccc(Cl)nc1 [Example 131, (5Z)-5-[2-{[tert-butyl(dimethyl)silyl]oxy}-1-(6-chloropyridin-3-yl)ethylidene]-2-(1′H,3H-spiro[2-benzofuran-1,4′-piperidin]-1′-yl)-1,3-thiazol-4(5H)-one]",7.8
13,"O=C1N=C(N2CCC3(CC2)OCc2ccccc23)S/C1=C(/CO)c1ccc(Cl)nc1 [Example 130, (5E)-5-[1-(6-chloropyridin-3-yl)-2-hydroxyethylidene]-2-(1′H,3H-spiro[2-benzofuran-1,4′-piperidin]-1′-yl)-1,3-thiazol-4(5H)-one]",8.9
14,"C/C(=C1/SC(N2CCC3(CC2)OCc2ccccc23)=NC1=O)c1cccn1C [Example 37, (5Z)-5-[1-(1-methyl-1H-pyrrol-2-yl)ethylidene]-2-(1′H,3H-spiro[2-benzofuran-1,4′-piperidin]-1′-yl)-1,3-thiazol-4(5H)-one]",9.1
15,"O=C1N=C(N2CCC3(CC2)OCc2ccccc23)S/C1=C\c1cccnc1 [Example 94, 5-(pyridin-3-ylmethylidene)-2-(1′H,3H-spiro[2-benzofuran-1,4′-piperidin]-1′-yl)-1,3-thiazol-4(5H)-one]",7.1
16,"[2H]C([2H])([2H])/C(=C1/SC(N2CCC3(CC2)OCc2ccccc23)=NC1=O)c1ccc(C)nc1 [Example 169, (5Z)-5-[1-(6-methylpyridin-3-yl)(^2H3)ethylidene]-2-(1′H,3H-spiro[2-benzofuran-1,4′-piperidin]-1′-yl)-1,3-thiazol-4(5H)-one]",8.8

row,Structure (SMILES),pKi hV1a
1,"O=C1N=C(N2CCC3(CC2)OCc2ccccc23)S/C1=C(\CO)c1ccccc1 [Example 127, (5Z)-5-(2-hydroxy-1-phenylethylidene)-2-(1′H,3H-spiro[2-benzofuran-1,4′-piperidin]-1′-yl)-1,3-thiazol-4(5H)-one]",9.0
2,"CC(C)(C)OC(=O)N1CCC/C(=C2/SC(N3CCC4(CC3)OCc3ccccc34)=NC2=O)C1 [Example 88, tert-butyl (3E/Z)-3-[4-oxo-2-(1′H,3H-spiro[2-benzofuran-1,4′-piperidin]-1′-yl)-1,3-thiazol-5(4H)-ylidene]piperidine-1-carboxylate]",6.7
3,"O=C1N=C(N2CCC3(CC2)OCc2ccccc23)SC1=C1c2ccccc2C=Cc2ccccc21 [Example 99, 5-(5H-dibenzo[a,d][7]annulen-5-ylidene)-2-(1′H,3H-spiro[2-benzofuran-1,4′-piperidin]-1′-yl)-1,3-thiazol-4(5H)-one]",8.4
4,"O=C1N=C(N2CCC3(CC2)OCc2ccccc23)SC1=C(c1ccc[nH]1)c1ccc[nH]1 [Example 122, 5-(di-1H-pyrrol-2-ylmethylidene)-2-(1′H,3H-spiro[2-benzofuran-1,4′-piperidin]-1′-yl)-1,3-thiazol-4(5H)-one]",9.0
5,"C/C(=C1\SC(N2CCC3(CC2)OC(=O)c2ccccc23)=NC1=O)c1ccc(Cl)nc1 [Example 138, 1′-{(5E)-5-[1-(6-chloropyridin-3-yl)ethylidene]-4-oxo-4,5-dihydro-1,3-thiazol-2-yl}-3H-spiro[2-benzofuran-1,4′-piperidin]-3-one]",8.3
6,"O=C1N=C(N2CCC3(CC2)OCc2ccccc23)S/C1=C(/c1ccc(Cl)cc1)C(F)(F)F [Example 17, (5Z)-5-[1-(4-chlorophenyl)-2,2,2-trifluoroethylidene]-2-(1′H,3H-spiro[2-benzofuran-1,4′-piperidin]-1′-yl)-1,3-thiazol-4(5H)-one]",8.5
7,"C/C(=C1/SC(N2CCC3(CC2)OCc2ccccc23)=NC1=O)c1cccnc1F [Example 61, (5Z)-5-[1-(2-fluoropyridin-3-yl)ethylidene]-2-(1′H,3H-spiro[2-benzofuran-1,4′-piperidin]-1′-yl)-1,3-thiazol-4(5H)-one]",9.1
8,"C/C(=C1/SC(N2CCC3(CC2)OCc2ccccc23)=NC1=O)c1ccc[nH]1 [Example 34, (5E/Z)-5-[1-(1H-pyrrol-2-yl)ethylidene]-2-(1′H,3H-spiro[2-benzofuran-1,4′-piperidin]-1′-yl)-1,3-thiazol-4(5H)-one]",9.2
9,"C/C(=C1\SC(N2CCC3(CC2)OC(=O)c2ccccc23)=NC1=O)c1ccc(C)nc1 [Example 136, 1′-{(5E)-5-[1-(6-methylpyridin-3-yl)ethylidene]-4-oxo-4,5-dihydro-1,3-thiazol-2-yl}-3H-spiro[2-benzofuran-1,4′-piperidin]-3-one]",7.5
10,"C/C(=C1/SC(N2CCC3(CC2)OCc2ccccc23)=NC1=O)c1ccc(C)nc1 [Example 7, (5E/Z)-5-[1-(6-methylpyridin-3-yl)ethylidene]-2-(1′H,3H-spiro[2-benzofuran-1,4′-piperidin]-1′-yl)-1,3-thiazol-4(5H)-one]",8.9
11,"C/C(CO[Si](C)(C)C(C)(C)C)=C1\SC(N2CCC3(CC2)OCc2ccccc23)=NC1=O [Example 58, (5E)-5-(1-{[tert-butyl(dimethyl)silyl]oxy}propan-2-ylidene)-2-(1′H,3H-spiro[2-benzofuran-1,4′-piperidin]-1′-yl)-1,3-thiazol-4(5H)-one]",7.2
12,C/C(=C1/SC(N2CCC3(CC2)OCc2ccccc23)=NC1=O)c1cc(C)on1 [Example 79],8.4
13,"CC(C)(C)OC(=O)NC/C(=C1/SC(N2CCC3(CC2)OCc2ccccc23)=NC1=O)c1ccccc1 [Example 159, tert-butyl {(2E/Z)-2-[4-oxo-2-(1′H,3H-spiro[2-benzofuran-1,4′-piperidin]-1′-yl)-1,3-thiazol-5(4H)-ylidene]-2-phenylethyl}carbamate]",9.3
14,"C/C(CN)=C1\SC(N2CCC3(CC2)OCc2ccccc23)=NC1=O.Cl [Example 66, (5E)-5-(1-aminopropan-2-ylidene)-2-(1′H,3H-spiro[2-benzofuran-1,4′-piperidin]-1′-yl)-1,3-thiazol-4(5H)-one hydrochloride (1:1)]",6.6
15,"CC(C)(C)[Si](C)(C)OC/C(=C1/SC(N2CCC3(CC2)OC(=O)c2ccccc23)=NC1=O)c1ccc(Cl)nc1 [Example 144, 1′-{(5E)-5-[2-{[tert-butyl(dimethyl)silyl]oxy}-1-(6-chloropyridin-3-yl)ethylidene]-4-oxo-4,5-dihydro-1,3-thiazol-2-yl}-3H-spiro[2-benzofuran-1,4′-piperidin]-3-one]",8.0

# Same assay, conditions: membranes of HEK293 cells transiently transfected with human V1a receptor, Ki by Cheng-Prussoff, read-out: pKi hV1a (converted)
row,Structure (SMILES),Ki
1,"O=C1N=C(N2CCC3(CC2)OCc2ccccc23)SC1=C1CCCNCC1 (racemic) [Example 81, (5E/Z)-5-(azepan-4-ylidene)-2-(1′H,3H-spiro[2-benzofuran-1,4′-piperidin]-1′-yl)-1,3-thiazol-4(5H)-one hydrochloride]",126 nM
